Legend:
Type in all cases: in vivo
db/db mouse [1] = test: Kidney function in the db/db mouse model of type 2 diabetes: urine albumin (ELISA), urinary creatinine (Cobas Integra), 24-hour metabolic caging; conditions: db/db mice, 50 mg/kg/day oral gavage; for albumin/creatinine ratio: vs db/db+V group
Experimental: Creatinine was determined using a Cobas Integra autoanalyzer. Excretion of urine albumin was measured by ELISA kit.
Urinary creatinine was determined using a Cobas Integra autoanalyzer.
Excretion of urine albumin was measured by ELISA kit.
The renoprotective effects of Urolithin A were assessed in a mouse model of type 2 diabetes (the db/db mouse).
A mouse model of diabetes was used endorsed by the Diabetic Complications Consortium (DiabComp/AMDCC), the db/db mouse model, which is obese and insulin resistant “type 2”.
Mice were purchased from The Jackson Laboratory (Stock No: 000642) in order to obtain sizeable cohorts to run groups in tandem, which is crucial for reliable testing of mitochondrial function. Eight to nine week-old male db/db mice (n=15 per group) received Urolithin A by oral gavage (50 mg/kg/day) for a duration of 10 weeks. Db/m (control) or db/db (diabetic) mice were randomized to the following treatments:
A suspension of 0.5% carboxymethylcellulose (CMC; Sigma #419303) was first prepared. Urolithin A (16.67 mg/ml) was prepared by dissolving in 0.5% CMC solution and left stirring at room temperature. Urolithin A was dosed at 50 mg/kg/day. The weights of the mice were used to calculate the dosage of Urolithin A to be administered to each mouse, based on weekly bodyweight measurements. Approximately 1001 of 0.5% CMC was given to mice daily in the vehicle groups.
At baseline, mid-point and one week prior to euthanasia, mice underwent metabolic caging for 24 hours to collect urine and to measure food and water intake. Body composition by EchoMRI was performed at baseline, mid-point and two weeks prior to euthanasia to determine fat mass and lean body mass. At baseline and week 9, an oral glucose tolerance test was performed to assess glucose handling. Fasting plasma glucose was measured using a glucose colorimetric assay kit (Cayman, Ann Arbor, USA) at baseline, 15 min and 60 min after glucose treatment. Blood pressure measurements were performed at week 10.
All analyses were performed by ANOVA followed by post hoc paired analysis using Tukey's least significant difference method, correcting for multiple comparisons. A value for p<0.05 was considered as statistically significant. A Z-score of 2 was used to exclude outliers.
One week prior to cull, 24-hour metabolic caging was performed to collect urine, and blood was collected from the submandibular vein. Urine and plasma creatinine was determined using the Cobas Integra autoanalyzer. Urine albumin was measured by ELISA (Bethyl, USA). Blood pressure was determined by tail cuff plethysmography.
Excretion of albumin in the urine over a 24-hour period was measured by ELISA kit (Bethyl). At the endpoint of the study, there was a significant increase in albuminuria in db/db mice when compared to db/m mice. […] Creatinine clearance was calculated from urine and plasma creatinine measured using the Creatinine plus ver.2 (CREP2) assay on a Cobas Integra 400 plus autoanalyzer (Roche Diagnostics). There was a decline in kidney function in db/db mice (Diabetic) as measured by an increase in albuminuria and reduced creatinine clearance at 18-19 weeks of age. Treatment of UA delayed the progression of albuminuria in the db/db mice.

db/db mouse [2] = test: Muscle mass of tibialis anterior and quadriceps by weighing in db/db mice; conditions: 50 mg/kg/day oral gavage, 10 weeks, vs db/db+V group
Experimental: The muscle mass of the tibialis anterior was measured by weighing on a precision scale. […] The muscle mass of the quadriceps was measured by weighing on a precision scale. Mice were purchased from The Jackson Laboratory (Stock No: 000642) in order to obtain sizeable cohorts to run groups in tandem, which is crucial for reliable testing of mitochondrial function. Eight to nine week-old male db/db mice (n=15 per group) received Urolithin A by oral gavage (50 mg/kg/day) for a duration of 10 weeks. Db/m (control) or db/db (diabetic) mice were randomized to the following treatments: A suspension of 0.5% carboxymethylcellulose (CMC; Sigma #419303) was first prepared. Urolithin A (16.67 mg/ml) was prepared by dissolving in 0.5% CMC solution and left stirring at room temperature. Urolithin A was dosed at 50 mg/kg/day. The weights of the mice were used to calculate the dosage of Urolithin A to be administered to each mouse, based on weekly bodyweight measurements. Approximately 1001 of 0.5% CMC was given to mice daily in the vehicle groups. All analyses were performed by ANOVA followed by post hoc paired analysis using Tukey's least significant difference method, correcting for multiple comparisons. A value for p<0.05 was considered as statistically significant. […] Whole body composition including lean mass and fat mass were measured using EchoMRI at baseline, midpoint and endpoint. […]

db/db mouse [3] = test: Whole body composition (lean mass) by EchoMRI in db/db mice; conditions: 50 mg/kg/day oral gavage, 10 weeks, vs db/db+V group
Experimental: The lean mass of muscles was measured using EchoMRI. Mice were purchased from The Jackson Laboratory (Stock No: 000642) in order to obtain sizeable cohorts to run groups in tandem, which is crucial for reliable testing of mitochondrial function. Eight to nine week-old male db/db mice (n=15 per group) received Urolithin A by oral gavage (50 mg/kg/day) for a duration of 10 weeks. Db/m (control) or db/db (diabetic) mice were randomized to the following treatments: A suspension of 0.5% carboxymethylcellulose (CMC; Sigma #419303) was first prepared. Urolithin A (16.67 mg/ml) was prepared by dissolving in 0.5% CMC solution and left stirring at room temperature. Urolithin A was dosed at 50 mg/kg/day. The weights of the mice were used to calculate the dosage of Urolithin A to be administered to each mouse, based on weekly bodyweight measurements. Approximately 1001 of 0.5% CMC was given to mice daily in the vehicle groups. At baseline, mid-point and one week prior to euthanasia, mice underwent metabolic caging for 24 hours to collect urine and to measure food and water intake. […] Fasting plasma glucose was measured using a glucose colorimetric assay kit (Cayman, Ann Arbor, USA) at baseline, 15 min and 60 min after glucose treatment. […] Whole body composition including lean mass and fat mass were measured using EchoMRI at baseline, midpoint and endpoint.

db/db mouse [4] = test: Femur bone mass by weighing in db/db mice; conditions: 50 mg/kg/day oral gavage, 10 week treatment, vs db/db+V group
Experimental: The bone femur mass was determined by weighing on a precision scale. Mice were purchased from The Jackson Laboratory (Stock No: 000642) in order to obtain sizeable cohorts to run groups in tandem, which is crucial for reliable testing of mitochondrial function. Eight to nine week-old male db/db mice (n=15 per group) received Urolithin A by oral gavage (50 mg/kg/day) for a duration of 10 weeks. Db/m (control) or db/db (diabetic) mice were randomized to the following treatments: A suspension of 0.5% carboxymethylcellulose (CMC; Sigma #419303) was first prepared. Urolithin A (16.67 mg/ml) was prepared by dissolving in 0.5% CMC solution and left stirring at room temperature. Urolithin A was dosed at 50 mg/kg/day. The weights of the mice were used to calculate the dosage of Urolithin A to be administered to each mouse, based on weekly bodyweight measurements. Approximately 1001 of 0.5% CMC was given to mice daily in the vehicle groups. All analyses were performed by ANOVA followed by post hoc paired analysis using Tukey's least significant difference method, correcting for multiple comparisons. A value for p<0.05 was considered as statistically significant. A Z-score of 2 was used to exclude outliers. Left and right femur bones were collected at the end of study, after 10 week treatment, and both femurs were cleaned and snap frozen, weighed and stored at −80° C.

db/db mouse [5] = test: Urinary carnosine, anserine and S-adenosylmethionine, semi-quantitative, HILIC chromatography and ESI-orbitrap mass spectrometry, in db/db mice; conditions: 50 mg/kg/day oral gavage, 10 weeks, vs db/db+V group
Experimental: Urinary carnosine was determined in a semi-quantitative manner using cold methanol:water:chloroform (5:3:5 (v/v)) extraction to separate the polar metabolites and apolar metabolites. In addition, a protein layer remained in the middle between the two phases. The polar phase was dried overnight in a vacuum centrifuge at 4° C. and 5 mbar, and was dissolved in 60 μl 60% (v/v) acetonitrile:water prior to analysis. The protein layer was quantified with a bicinchoninic acid (BCA) assay (ThermoFisher Scientific) and used for later normalization of the metabolite concentrations. Two microliters of each sample were injected into a hydrophilic interaction chromatography (HILIC) analytical column. The separation was achieved by applying a linear solvent gradient. As mobile phase, solvent A was H2O with 10 mM ammonium acetate (NH4Ac) and 0.04% (v/v) ammonium hydroxide (NH4OH), pH ˜9.3, and solvent B was acetonitrile (ACN). The eluting metabolites, including carnosine, were analyzed with an orbitrap mass spectrometer (Orbitrap Fusion Lumos Tribrid, Thermo Scientific) equipped with a heated electrospray ionisation (H-ESI) source. […]
Urinary anserine was determined in a semi-quantitative manner using cold methanol:water:chloroform (5:3:5 (v/v)) extraction to separate the polar metabolites and apolar metabolites. […] The protein layer was quantified with a bicinchoninic acid (BCA) assay (ThermoFisher Scientific) and used for later normalization of the metabolite concentrations. […] The eluting metabolites, including anserine, were analyzed with an orbitrap mass spectrometer (Orbitrap Fusion Lumos Tribrid, Thermo Scientific) equipped with a heated electrospray ionization (H-ESI) source. […]
Urinary S-adenosylmethionine was determined in a semi-quantitative manner using cold methanol:water:chloroform (5:3:5 (v/v)) extraction to separate the polar metabolites and apolar metabolites. […] The protein layer was quantified with a bicinchoninic acid (BCA) assay (ThermoFisher Scientific) and used for later normalization of the metabolite concentrations. […]

O=c1oc2cc(O)ccc2c2ccc(O)cc12 [UA, 3,8-dihydroxyurolithin]
urinary creatinine (db/db mouse [1]; 10 weeks, vs vehicle-treated group): higher
albumin/creatinine ratio (db/db mouse [1]; after 5 weeks of treatment (midpoint)): significantly decreased
albumin/creatinine ratio (db/db mouse [1]; after 10 weeks of treatment (endpoint)): significantly decreased
albuminuria (24-hour urine albumin excretion) (db/db mouse [1]; at midpoint (5 weeks)): did affect albuminuria
progression of albuminuria (db/db mouse [1]; baseline to 10 weeks, vs vehicle-treated counterparts): significantly delayed
muscle mass of the quadriceps (db/db mouse [2]): significantly increased
muscle mass of the tibialis anterior (db/db mouse [2]): significantly increased
lean mass (db/db mouse [3]): significantly increased
femur bone mass (db/db mouse [4]): significantly increased
levels of urinary S-adenosylmethionine (SAM) (db/db mouse [5]): significantly increased
levels of urinary anserine (db/db mouse [5]): significantly increased
levels of urinary carnosine (db/db mouse [5]): significantly increased
